Consider seven compounds from PubChem BioAssay (NCI).

Among the test systems are UO-31 renal; A549 NSCLC; SN12C renal; K-562 leukemia; MOLT-4 leukemia; SK-MEL-28 melanoma; SR leukemia; DU-145 prostate; T-47D breast; SK-OV-3 ovarian.
What all share (test): DTP human tumour cell line panel, 48 h

As a reminder, the GI50 is the concentration that inhibits growth by half. The TGI is the concentration at which net growth stops.

Several values for one entry are separate records, joined by “and”; a condition that tells them apart may be missing. Equal entries are not always repeated.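 Five compound concentrations were applied to cells in 96-well plates for 48 hours; endpoints were derived by simple linear interpolation of the resulting dose-response curve. GI50: concentration for 50% inhibition of growth. Definition used: TGI = concentration required for complete inhibition of growth.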 A value given as a limit tells only on which side of the number the result lay.

With `O=C1OCC2=C1C(c1ccccc1)c1cc3c(cc1N2CCO)CCC3` (centres undefined), the 50% growth inhibitory concentration (GI50) is 0.117 µM in the assay with UO-31 renal; 0.152 µM with A549 NSCLC; 0.172 µM with SN12C renal; 0.0908 µM in the assay on K-562 leukemia; 0.307 µM in the assay with MOLT-4 leukemia; 0.168 µM in the assay on SK-MEL-28 melanoma. The GI50 in the assay on SR leukemia is 0.0762 µM; with DU-145 prostate it was 0.0778 µM; with T-47D breast, 0.0922 µM; with SK-OV-3 ovarian, 0.097 µM. For the same compound, the TGI is above 20.1 µM in the assay with UO-31 renal; above 25 µM in the assay with A549 NSCLC; above 25 µM with SN12C renal; above 25 µM in the assay with K-562 leukemia; above 25 µM with MOLT-4 leukemia; above 25 µM in the assay with SK-MEL-28 melanoma. The concentration for total growth inhibition (TGI) was above 25 µM with SR leukemia, 0.464 µM in the assay on DU-145 prostate, above 25 µM with T-47D breast and 8.73 µM in the assay on SK-OV-3 ovarian.
On to `C[C@@]12CCC[C@@](C)(C(=O)O)C1CC[C@]13C=C(CO)[C@](O)(CCC12)C3` (some centres undefined), for which the GI50 in the assay on UO-31 renal, in the assay with A549 NSCLC, with SN12C renal, with K-562 leukemia, with MOLT-4 leukemia and with SK-MEL-28 melanoma was above 100 µM each time. Besides, the GI50 in the assay on SR leukemia, in the assay on DU-145 prostate, with T-47D breast and in the assay with SK-OV-3 ovarian was above 100 µM in each case. The concentration for total growth inhibition (TGI) with UO-31 renal, in the assay with A549 NSCLC, in the assay with SN12C renal, in the assay on K-562 leukemia, in the assay on MOLT-4 leukemia and in the assay with SK-MEL-28 melanoma was above 100 µM in each case. The concentration for total growth inhibition (TGI) in the assay on SR leukemia, with DU-145 prostate, with T-47D breast and with SK-OV-3 ovarian was above 100 µM throughout.
Turning to `CCN(CC)CCC(CNc1c2ccc([N+](=O)[O-])cc2nc2cc(OC)c(OC)cc12)c1ccccc1` (centres undefined), the GI50 in the assay with UO-31 renal was 1.1 µM and 0.956 µM; in the assay with A549 NSCLC, 0.177 µM and 0.132 µM; in the assay with SN12C renal it was 0.229 µM and 0.218 µM; in the assay with K-562 leukemia, 0.142 µM and 0.146 µM; in the assay on MOLT-4 leukemia, 0.317 µM and 0.444 µM; with SK-MEL-28 melanoma, 0.347 µM and 0.278 µM. The GI50 is 0.0379 µM and 0.057 µM in the assay with SR leukemia; 0.134 µM and 0.0582 µM in the assay on DU-145 prostate; 0.822 µM and 0.541 µM in the assay on T-47D breast; 0.844 µM and 0.695 µM with SK-OV-3 ovarian. For the same compound, the TGI in the assay on UO-31 renal was 2.43 µM and 2.6 µM; in the assay with A549 NSCLC, 0.401 µM and 0.541 µM; in the assay on SN12C renal, 1.22 µM and 1.49 µM; in the assay with K-562 leukemia, 1.25 µM and 3.85 µM; in the assay on MOLT-4 leukemia, 2.41 µM and 5.93 µM; in the assay with SK-MEL-28 melanoma it was 1.23 µM and 0.831 µM. The total growth inhibition concentration (TGI) in the assay on SR leukemia is 0.521 µM and 3.57 µM; in the assay with DU-145 prostate it was 1.04 µM and 0.301 µM; in the assay with T-47D breast it was 2.97 µM and 2.61 µM; in the assay with SK-OV-3 ovarian it was 2.17 µM and 2.55 µM.
As to `O=C1OCC2=C1C(c1cccc([N+](=O)[O-])c1)c1cc3c(cc1N2CCO)CCC3` (centres undefined), the GI50 was 0.269 µM in the assay on UO-31 renal; 0.223 µM in the assay with A549 NSCLC; 0.339 µM with SN12C renal; 0.0666 µM with K-562 leukemia; 0.254 µM with MOLT-4 leukemia; 1.3 µM with SK-MEL-28 melanoma. Moreover, the 50% growth inhibitory concentration (GI50) with SR leukemia was 0.0554 µM; in the assay on DU-145 prostate, 0.19 µM; in the assay with T-47D breast, 0.355 µM; with SK-OV-3 ovarian, 0.226 µM. Further, the TGI with UO-31 renal is above 34.3 µM; in the assay with A549 NSCLC, above 50 µM; in the assay on SN12C renal it was above 39.9 µM; in the assay on K-562 leukemia, above 50 µM; in the assay on MOLT-4 leukemia, 43.3 µM; in the assay on SK-MEL-28 melanoma it was above 39.9 µM. Also, the TGI in the assay on SR leukemia was above 36.3 µM; in the assay on DU-145 prostate, above 24.5 µM; with T-47D breast it was above 50 µM; in the assay with SK-OV-3 ovarian, above 50 µM.
Regarding `CCCCCCCCCCCCCCCCCC(=O)[O][Sn]([CH2]CCC)([CH2]CCC)[CH2]CCC`, the GI50 was 0.161 µM in the assay on UO-31 renal; 0.153 µM in the assay on A549 NSCLC; 0.152 µM in the assay with SN12C renal; 0.142 µM in the assay on K-562 leukemia; 0.237 µM in the assay on MOLT-4 leukemia; 0.159 µM in the assay on SK-MEL-28 melanoma. For the same compound, the concentration for 50% growth inhibition (GI50) with SR leukemia is 0.0738 µM; in the assay with DU-145 prostate, 0.136 µM; in the assay with T-47D breast, 0.124 µM; with SK-OV-3 ovarian, 0.143 µM. Further, the TGI in the assay on UO-31 renal is 0.34 µM; in the assay with A549 NSCLC, 0.317 µM; in the assay on SN12C renal it was 0.403 µM; in the assay on K-562 leukemia it was above 100 µM; in the assay on SK-MEL-28 melanoma it was 0.31 µM; in the assay on SR leukemia, 0.388 µM. Besides, the total growth inhibition concentration (TGI) in the assay on DU-145 prostate is 0.271 µM; in the assay on T-47D breast it was 0.293 µM; in the assay with SK-OV-3 ovarian it was 0.288 µM.
Regarding `O=[n+]1cnn([O-])c2ccccc21`, the concentration for total growth inhibition (TGI) in the assay with UO-31 renal was 94.4 µM; in the assay on A549 NSCLC, above 100 µM; in the assay on SN12C renal, above 100 µM; in the assay on K-562 leukemia, above 100 µM; with MOLT-4 leukemia, above 100 µM; with SK-MEL-28 melanoma, above 100 µM. For the same compound, the TGI in the assay on SR leukemia is above 100 µM; in the assay on DU-145 prostate it was above 100 µM; in the assay with T-47D breast, 29.7 µM; in the assay with SK-OV-3 ovarian it was above 100 µM.
Consider `O=C(/C=C/c1ccccc1O)c1ccccc1`, for which the GI50 in the assay on UO-31 renal is 1.68 µM; with A549 NSCLC, 17 µM; with SN12C renal it was 12.9 µM; in the assay with K-562 leukemia, 2.51 µM; in the assay with MOLT-4 leukemia it was 2.78 µM; in the assay with SK-MEL-28 melanoma, 9.5 µM. Moreover, the GI50 with SR leukemia was 1.83 µM; in the assay with DU-145 prostate, 5.86 µM; with T-47D breast, 14.7 µM; in the assay with SK-OV-3 ovarian it was 31.5 µM. Moreover, the TGI with UO-31 renal turned out to be 15.7 µM; in the assay with A549 NSCLC it was 36.1 µM; in the assay on SN12C renal it was 28.7 µM; with K-562 leukemia it was 14.1 µM; in the assay with MOLT-4 leukemia, 14.3 µM; with SK-MEL-28 melanoma it was 22 µM. For the same compound, the total growth inhibition concentration (TGI) in the assay on SR leukemia is 5.8 µM; in the assay on DU-145 prostate it was 18.7 µM; in the assay on T-47D breast, 64.5 µM; in the assay with SK-OV-3 ovarian, above 100 µM.
